Here are results for 17 compounds from ChEMBL document CHEMBL3351512, “Studies on molecular properties prediction and histamine H3 receptor affinities of novel ligands with uracil-based motifs” (Eur J Med Chem, 2014).

Test [1] has as its target Histamine H3 receptor (Homo sapiens, UniProt Q9Y5N1). Put plainly: Displacement of [3H]N-alpha-Methylhistamine from human recombinant H3 receptor expressed in HEK293 cells by competitive binding assay. It counts as cell-based. In general terms: In a radioligand displacement assay an active substance lowers the binding of a labelled ligand.
The target of test [2] is Histamine H3 receptor (Rattus norvegicus, UniProt Q9QYN8). Put plainly: Binding affinity to rat H3 receptor.

A value given as a limit tells only on which side of the number the result lay.

Chain of Histamine H3 receptor (Homo sapiens, UniProt Q9Y5N1) (Q9Y5N1 whole entry): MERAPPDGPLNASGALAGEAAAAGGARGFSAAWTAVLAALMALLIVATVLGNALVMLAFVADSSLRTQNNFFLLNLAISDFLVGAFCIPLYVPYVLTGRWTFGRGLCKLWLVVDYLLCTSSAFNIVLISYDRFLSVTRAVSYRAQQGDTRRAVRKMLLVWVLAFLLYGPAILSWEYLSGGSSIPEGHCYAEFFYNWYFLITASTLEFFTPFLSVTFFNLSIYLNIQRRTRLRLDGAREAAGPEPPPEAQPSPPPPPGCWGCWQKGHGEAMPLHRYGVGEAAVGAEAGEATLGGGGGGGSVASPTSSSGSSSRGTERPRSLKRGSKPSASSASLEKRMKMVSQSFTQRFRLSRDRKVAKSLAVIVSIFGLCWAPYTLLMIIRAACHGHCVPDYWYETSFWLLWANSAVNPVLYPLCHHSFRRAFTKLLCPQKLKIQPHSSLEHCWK
Chain of Histamine H3 receptor (Rattus norvegicus, UniProt Q9QYN8) (Q9QYN8 whole entry): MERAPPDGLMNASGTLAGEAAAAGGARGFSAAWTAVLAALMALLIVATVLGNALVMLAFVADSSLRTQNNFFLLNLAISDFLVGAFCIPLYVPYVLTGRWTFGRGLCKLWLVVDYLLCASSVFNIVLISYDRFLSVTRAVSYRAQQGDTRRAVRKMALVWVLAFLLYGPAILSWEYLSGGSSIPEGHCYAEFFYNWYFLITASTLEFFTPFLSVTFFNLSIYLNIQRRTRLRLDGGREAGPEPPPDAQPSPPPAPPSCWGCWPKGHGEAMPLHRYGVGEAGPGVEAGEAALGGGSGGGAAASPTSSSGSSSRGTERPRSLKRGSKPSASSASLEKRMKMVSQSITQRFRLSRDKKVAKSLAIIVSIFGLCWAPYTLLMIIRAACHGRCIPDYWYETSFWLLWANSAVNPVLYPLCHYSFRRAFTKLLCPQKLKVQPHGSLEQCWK

As to `CC(C)N1CCCN(C(=O)C2CCN(c3ccc(C(F)(F)F)nc3)CC2)CC1`, at Histamine H3 receptor [1] (read-out: pKi (converted)), the Ki was 0.126 nM.

On to `O=C(c1ccccc1)n1c(=O)ccn(CCCN2CCCCC2)c1=O`, for which the Ki on Histamine H3 receptor [1] (read-out: pKi (converted)) is 1150 nM.

With `O=C(c1ccccc1)n1c(=O)ccn(Cc2ccc(OCCCN3CCCCC3)cc2)c1=O`, the Ki at Histamine H3 receptor [1] (read-out: pKi (converted)) was 7.24 nM.

Take `Cc1cn(Cc2ccc(OCCCN3CCCCC3)cc2)c(=O)n(C(=O)c2ccccc2)c1=O`: the Ki at Histamine H3 receptor [1] (read-out: pKi (converted)) is 31.6 nM.

On to `Cc1c(C)n(Cc2ccc(OCCCN3CCCCC3)cc2)c(=O)n(C(=O)c2ccccc2)c1=O`, for which the Ki at Histamine H3 receptor [1] (read-out: pKi (converted)) is 34.7 nM.

With `CC(C)(C)OC(=O)n1ccc(=O)n(Cc2ccc(OCCCN3CCCCC3)cc2)c1=O`, the Ki on Histamine H3 receptor [1] (read-out: pKi (converted)) was 50.1 nM.

For the compound `Cc1cn(C(=O)OC(C)(C)C)c(=O)n(Cc2ccc(OCCCN3CCCCC3)cc2)c1=O`, the Ki on Histamine H3 receptor [1] (read-out: pKi (converted)) is 46.8 nM.

With `Cc1c(C)n(C(=O)OC(C)(C)C)c(=O)n(Cc2ccc(OCCCN3CCCCC3)cc2)c1=O`, the Ki on Histamine H3 receptor [1] (read-out: pKi (converted)) is 38 nM.

On to `O=c1ccn(CCCN2CCCCC2)c(=O)[nH]1`, for which the Ki on Histamine H3 receptor [1] (read-out: pKi (converted)) was 7080 nM.

With `O=c1ccn(Cc2ccc(OCCCN3CCCCC3)cc2)c(=O)[nH]1`, on Histamine H3 receptor [1] (read-out: pKi (converted)), the Ki was 12.9 nM.

For `Cc1cn(Cc2ccc(OCCCN3CCCCC3)cc2)c(=O)[nH]c1=O`, at Histamine H3 receptor [1] (read-out: pKi (converted)), the Ki is 7.08 nM.

Consider `Cc1c(C)n(Cc2ccc(OCCCN3CCCCC3)cc2)c(=O)[nH]c1=O`, for which the Ki at Histamine H3 receptor [1] (read-out: pKi (converted)) was 17.8 nM.

As for `O=c1cc[nH]c(=O)n1Cc1ccc(OCCCN2CCCCC2)cc1`, on Histamine H3 receptor [1] (read-out: pKi (converted)), the Ki was 28.8 nM.

Take `Cc1c[nH]c(=O)n(Cc2ccc(OCCCN3CCCCC3)cc2)c1=O`: at Histamine H3 receptor [1] (read-out: pKi (converted)), the Ki was 63.1 nM.

The IC50 is the point on the concentration scale where inhibition reaches its midpoint. Take `CCN1CCc2nc(OC3CCN(C4CCC4)CC3)ncc2C1=O`: on Histamine H3 receptor [1], the half-maximal inhibitory concentration (IC50) was no more than 50 nM.

With `O=c1cccnn1-c1ccc2nc(N3CC[C@@H](N4CCCCC4)C3)sc2c1`, the Ki on Histamine H3 receptor [1] (read-out: Ki) is less than 25 nM.

In the case of `C[C@H]1CCCN1CCCOc1ccc(/C(CN2CCCCC2=O)=N/OC(C)(C)C)cc1`, the Ki on Histamine H3 receptor [2] was less than 100 nM.
